Holding throughout (format): functional
One assay concerns Moraxella catarrhalis. Nature of the assay: Antibacterial activity against Moraxella catarrhalis clinical isolate by broth microdilution method. In general terms: In broth dilution the organism is exposed to a series of concentrations in liquid medium.
The subject of the next assay is Haemophilus influenzae. Nature of the assay: Antibacterial activity against Haemophilus influenzae clinical isolate by broth microdilution method.
The test system of a further assay is Citrobacter koseri. Nature of the assay: Antibacterial activity against Citrobacter diversus clinical isolate by broth microdilution method.
A further assay relates to Citrobacter freundii. The assay is described as follows: Antibacterial activity against Citrobacter freundii clinical isolate by broth microdilution method.
Another assay concerns Klebsiella aerogenes. Nature of the assay: Antibacterial activity against Enterobacter aerogenes clinical isolate by broth microdilution method.
The next assay concerns Enterobacter cloacae. Nature of the assay: Antibacterial activity against Enterobacter cloacae clinical isolate by broth microdilution method.
The next assay deals with Escherichia coli. Nature of the assay: Antibacterial activity against Escherichia coli clinical isolate by broth microdilution method.
Another assay relates to Klebsiella oxytoca. The assay is described as follows: Antibacterial activity against Klebsiella oxytoca clinical isolate by broth microdilution method.
For assay [1], the system named is Klebsiella pneumoniae. The assay is described as follows: Antibacterial activity against Klebsiella pneumoniae clinical isolate by broth microdilution method.
For assay [2], the system named is Klebsiella pneumoniae. Nature of the assay: Antibacterial activity against extended-spectrum beta-lactamase producing Klebsiella pneumoniae clinical isolate by broth microdilution method.
The next assay relates to Serratia marcescens. Nature of the assay: Antibacterial activity against Serratia marcescens clinical isolate by broth microdilution method.
The subject of the next assay is Proteus mirabilis. The assay is described as follows: Antibacterial activity against Proteus mirabilis clinical isolate by broth microdilution method.
The next assay relates to Proteus vulgaris. The assay is described as follows: Antibacterial activity against Proteus vulgaris clinical isolate by broth microdilution method.
For another assay, the system named is Morganella morganii. Nature of the assay: Antibacterial activity against Morganella morganii clinical isolate by broth microdilution method.
For the next assay, the system named is Providencia rettgeri. The assay is described as follows: Antibacterial activity against Providencia rettgeri clinical isolate by broth microdilution method.
The test system of another assay is Salmonella sp. The assay is described as follows: Antibacterial activity against Salmonella sp. by broth microdilution method.
In the next assay the test system is Shigella sp. The assay is described as follows: Antibacterial activity against Shigella sp. by broth microdilution method.
In another assay the test system is Pseudomonas aeruginosa. Nature of the assay: Antibacterial activity against Pseudomonas aeruginosa clinical isolate by broth microdilution method.
The subject of the next assay is Burkholderia cepacia. The assay is described as follows: Antibacterial activity against Burkholderia cepacia clinical isolate by broth microdilution method.
A further assay relates to Acinetobacter sp. Nature of the assay: Antibacterial activity against Acinetobacter sp. by broth microdilution method.
Assay [3] deals with Stenotrophomonas maltophilia. Nature of the assay: Antibacterial activity against Stenotrophomonas maltophilia clinical isolate by broth microdilution method.
For assay [4], the system named is Streptococcus pneumoniae. Nature of the assay: Antibacterial activity against penicillin-susceptible Streptococcus pneumoniae clinical isolate by broth microdilution method.
The test system of assay [5] is Streptococcus pneumoniae. The assay is described as follows: Antibacterial activity against penicillin-nonsusceptible Streptococcus pneumoniae clinical isolate by broth microdilution method.

≈ marks a conversion by molar mass, not a printed value.

As for `CC1(C)S[C@@H]2[C@H](NC(=O)[C@H](N)c3ccc(O)cc3)C(=O)N2[C@H]1C(=O)O` [AMOXICILLIN], in the assay with Moraxella catarrhalis, the MIC50 is 1 µg/mL (≈ 2.74 µM) and the MIC90 amounted to 8 µg/mL (≈ 21.9 µM). In the assay on Haemophilus influenzae, this compound displayed an MIC50 of 2 µg/mL (≈ 5.47 µM) and an MIC90 of 32 µg/mL (≈ 87.6 µM).
`CC(C)(O/N=C(\C(=O)N[C@@H]1C(=O)N2C(C(=O)[O-])=C(C[n+]3ccccc3)CS[C@H]12)c1csc(N)n1)C(=O)O` [CEFTAZIDIME]: the MIC50 in the assay on Citrobacter koseri, against Citrobacter freundii, with Klebsiella aerogenes, in the assay on Enterobacter cloacae, against Escherichia coli and in the assay on Klebsiella oxytoca was 0.5 µg/mL (≈ 0.915 µM) throughout. Further, the MIC50 in the assay with Klebsiella pneumoniae [1], with Klebsiella pneumoniae [2], in the assay on Serratia marcescens, in the assay with Proteus mirabilis, in the assay with Proteus vulgaris and in the assay on Morganella morganii was 0.5 µg/mL (≈ 0.915 µM) throughout. Besides, the MIC50 against Providencia rettgeri turned out to be 0.5 µg/mL (≈ 0.915 µM); against Salmonella sp. it was 0.5 µg/mL (≈ 0.915 µM); against Shigella sp., 0.5 µg/mL (≈ 0.915 µM); in the assay on Pseudomonas aeruginosa, 16 µg/mL (≈ 29.3 µM); with Burkholderia cepacia it was 16 µg/mL (≈ 29.3 µM); with Acinetobacter sp. it was 16 µg/mL (≈ 29.3 µM). In [3], this compound came in with an MIC50 of 16 µg/mL (≈ 29.3 µM). Further, the MIC90 in the assay with Citrobacter koseri, against Citrobacter freundii, against Klebsiella aerogenes, with Enterobacter cloacae, against Escherichia coli and in the assay on Klebsiella oxytoca was over 64 µg/mL in each case. For the same compound, the MIC90 with Klebsiella pneumoniae [1], in the assay on Klebsiella pneumoniae [2], in the assay with Serratia marcescens, against Proteus mirabilis, in the assay on Proteus vulgaris and against Morganella morganii was over 64 µg/mL in each case. For the same compound, the MIC90 against Providencia rettgeri, against Salmonella sp., against Shigella sp., against Pseudomonas aeruginosa, against Burkholderia cepacia and against Acinetobacter sp. was over 64 µg/mL throughout. Further, the MIC90 in assay [3] is over 64 µg/mL.
Consider `CC1(C)S[C@@H]2[C@H](NC(=O)Cc3ccccc3)C(=O)N2[C@H]1C(=O)O` [PENICILLIN G], for which, in the assay on Streptococcus pneumoniae [4], the MIC came out at 0.015 µg/mL (≈ 0.0449 µM), the MIC50 was found to be 0.015 µg/mL (≈ 0.0449 µM) and the MIC90 was determined as 0.015 µg/mL (≈ 0.0449 µM). Also, in the assay on Streptococcus pneumoniae [5], the MIC50 was 2 µg/mL (≈ 5.98 µM) and the MIC90 turned out to be 4 µg/mL (≈ 12 µM).

What is called MIC is the smallest concentration in the dilution series that meets the test's criterion for growth inhibition.

The values above are taken from ChEMBL document CHEMBL1255373, “In vitro antibacterial activity of CE-156811, a novel analog derived from hygromycin A” (2008).
